As a reminder, the IC50 is the point on the concentration scale where inhibition reaches its midpoint. Read a high IC50 as a need for much substance.

The record followed here is US8796314B2, “Heteroaryls and uses thereof” (Millennium Pharmaceuticals, Inc., priority 2009, dated 2014).

The target in the experiment is T1, PI3Kalpha (Homo sapiens, UniProt P42336).
T1 construct: His (N); host or cells: SF9 insect cells (baculovirus)
Kind of experiment: Human PI3Kα enzyme assay (HTRF). The note with it: ATP 25 uM, di-C8 PI(4,5)P2, 30 minutes at room temperature, values given only as potency bins. It counts as biochemical. The text has this:
The catalytic subunits of PI3Ks are cloned into either pDEST8 (p110 alpha) or pDEST10 (p110beta, p110delta, and p110gamma) as N-terminal His tagged fusion proteins using the Gateway system (Invitrogen, catalog#11804-010 for pDEST8 and 11806-015 for pDEST10). The sequences are verified before recombinant protein expression using the Baculovirus Expression System with Gateway® Technology. The accession numbers for the subunits are as follows:
The regulatory subunits of PI3Ks are cloned into pDEST8 as un-tagged protein using the Gateway system (Catalog#11804-010). The sequences are verified before recombinant protein expression using the Baculovirus Expression System with Gateway® Technology. The accession numbers for the subunits are as following: p85 alpha (GB: BC030815) p101 (GB: AB028925)
For expression of the p110 complexes, the p85 (MOI of 4) is co-infected with p110 alpha, beta, and delta respectively (1 MOI) in SF9 cells and harvested at 60 hours post co-infection. P110 gamma was infected at 1 MOI and harvested at 60 hours post infection.
For purification, PI3Ks are purified by Ni-NTA Agarose (Qiagen #30250) followed by Mono Q 10/100 GL (Ge Healthcare #17-5167-01). VPS34 is purified by Glutathione Sepharose 4 Fast Flow (GE Healthcare #17-5132-03) followed by HiTrap Q (GE Healthcare #17-1153-01).
1) Human PI3Kα Enzyme Assay Method
0.5 uL compounds in DMSO are added to wells of a 384 well microtitre plate (Corning 3575). At room temperature: 10 ul PI3K reaction buffer (50 mM Hepes, 5 mM DTT, 150 mM NaCl, 10 mM beta-glycerophosphate, 10 mM MgCl2, 0.25 mM sodium cholate and 0.001% CHAPS, pH 7.00) containing ATP (25 uM, Promega) is added followed immediately by 10 ul PI3K reaction buffer containing di-C8 PI(4,5)P2 (3.5 uM, CellSignals) and PI3Kalpha (0.4875 nM, Millennium Protein Sciences Group) and the mixture is incubated with shaking at room temperature for 30 minutes. Then 5 ul PI3K stop mix (50 mM Hepes, 5 mM DTT, 150 mM NaCl, 0.01% Tween-20, 15 mM EDTA and 25 nM biotin-PI(3,4,5)P3 (Echelon) is added to quench the reaction followed immediately by addition of 5 ul HTRF detection mix (50 mM Hepes, 5 mM DTT, 150 mM NaCl, 0.01% Tween-20, 40 mM KF, 10 nM GST:GRP-1 PH domain (Millennium Protein Sciences Group), 15 nM Streptavidin-XL (CisBio) and 0.375 nM anti-GST Eu++ antibody (CisBio) at pH 7.00). The plates are then incubated for 1 hour at room temperature with shaking and then read on a BMG PheraStar Plus reader.
(In general: In TR-FRET formats the signal depends on donor and acceptor labels being close together.)

T1 sequence (P42336 whole entry): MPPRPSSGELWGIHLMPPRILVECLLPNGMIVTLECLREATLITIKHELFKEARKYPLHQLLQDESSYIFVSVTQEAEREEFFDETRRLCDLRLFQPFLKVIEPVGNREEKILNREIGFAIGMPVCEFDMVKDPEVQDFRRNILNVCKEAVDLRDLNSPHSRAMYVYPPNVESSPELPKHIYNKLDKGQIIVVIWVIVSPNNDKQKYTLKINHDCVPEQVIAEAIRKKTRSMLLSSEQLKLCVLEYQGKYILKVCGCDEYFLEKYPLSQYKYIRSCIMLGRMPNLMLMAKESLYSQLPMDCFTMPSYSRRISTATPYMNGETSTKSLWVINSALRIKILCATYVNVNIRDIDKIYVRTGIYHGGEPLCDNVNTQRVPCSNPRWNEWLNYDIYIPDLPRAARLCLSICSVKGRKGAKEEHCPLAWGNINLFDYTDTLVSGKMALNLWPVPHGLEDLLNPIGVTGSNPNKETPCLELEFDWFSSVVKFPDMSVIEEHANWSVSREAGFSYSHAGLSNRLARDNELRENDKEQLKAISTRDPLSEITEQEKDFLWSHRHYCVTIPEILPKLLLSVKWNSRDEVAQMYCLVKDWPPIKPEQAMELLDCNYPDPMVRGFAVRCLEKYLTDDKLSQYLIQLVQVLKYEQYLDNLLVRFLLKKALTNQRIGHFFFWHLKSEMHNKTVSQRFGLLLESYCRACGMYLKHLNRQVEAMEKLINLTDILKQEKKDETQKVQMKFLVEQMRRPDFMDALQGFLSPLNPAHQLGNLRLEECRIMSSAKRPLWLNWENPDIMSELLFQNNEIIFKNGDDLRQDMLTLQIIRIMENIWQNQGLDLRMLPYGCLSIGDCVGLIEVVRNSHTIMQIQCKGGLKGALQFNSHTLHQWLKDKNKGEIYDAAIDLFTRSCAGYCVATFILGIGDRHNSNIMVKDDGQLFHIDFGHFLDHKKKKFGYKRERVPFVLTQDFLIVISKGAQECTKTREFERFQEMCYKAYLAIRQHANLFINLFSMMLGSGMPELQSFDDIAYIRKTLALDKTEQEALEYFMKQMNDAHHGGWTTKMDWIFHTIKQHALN
T1 sequence (P27986 whole entry partner): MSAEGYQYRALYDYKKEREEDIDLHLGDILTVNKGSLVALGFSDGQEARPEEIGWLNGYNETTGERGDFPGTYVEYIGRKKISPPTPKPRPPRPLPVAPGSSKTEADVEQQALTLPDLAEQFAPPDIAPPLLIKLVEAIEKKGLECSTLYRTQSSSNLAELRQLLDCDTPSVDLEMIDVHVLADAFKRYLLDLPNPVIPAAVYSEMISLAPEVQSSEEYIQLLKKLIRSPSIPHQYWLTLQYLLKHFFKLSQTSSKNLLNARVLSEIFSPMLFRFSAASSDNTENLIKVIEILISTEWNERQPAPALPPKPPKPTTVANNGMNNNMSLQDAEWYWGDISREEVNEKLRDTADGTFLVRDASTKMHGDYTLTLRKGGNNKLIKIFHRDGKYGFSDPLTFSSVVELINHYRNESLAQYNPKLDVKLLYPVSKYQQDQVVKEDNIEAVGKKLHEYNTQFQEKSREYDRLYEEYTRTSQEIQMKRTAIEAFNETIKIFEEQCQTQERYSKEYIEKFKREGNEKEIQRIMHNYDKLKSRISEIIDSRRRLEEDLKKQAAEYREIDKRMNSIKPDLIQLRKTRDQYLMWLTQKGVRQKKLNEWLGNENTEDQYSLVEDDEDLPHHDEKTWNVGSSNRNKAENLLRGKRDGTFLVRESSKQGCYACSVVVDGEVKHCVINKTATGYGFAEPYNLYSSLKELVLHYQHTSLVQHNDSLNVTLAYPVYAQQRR

Compound `N#Cc1c(-c2ccnc(NC(=O)c3ccccc3)c2)sc(-c2nnc[nH]2)c1-c1ccc(Cl)cc1Cl` [Compound 1] returned a 50% inhibitory concentration (IC50) of over 1 µM. Turning to `CS(=O)(=O)Nc1cc(-c2sc(-c3nnc[nH]3)c(-c3ccc(Cl)cc3Cl)c2C#N)ccn1` [Compound 4], the IC50 is over 1 µM. For `Cc1cnc(N)nc1-c1sc(-c2nnc[nH]2)c(-c2ccc(Cl)cc2Cl)c1C#N` [Compound 8] the value was over 1 µM; for `CNc1nccc(-c2sc(-c3ncc[nH]3)c(-c3ccc(Cl)cc3Cl)c2C#N)n1` [Compound 16], under 0.1 µM; for `COc1cc(-c2sc(-c3nnc[nH]3)c(-c3ccc(Cl)cc3Cl)c2C#N)ccn1` [Compound 24], over 1 µM. The compound `COc1ccc(CNc2cc(-c3sc(-c4nnc[nH]4)c(-c4ccc(Cl)cc4Cl)c3C#N)ccn2)c(OC)c1` [Compound 33] gave an IC50 of over 1 µM.

Regarding `CNC(=O)c1cc(-c2sc(-c3nnc[nH]3)c(-c3ccc(Cl)cc3Cl)c2C#N)ccn1` [Compound 44], the IC50 was over 1 µM. The same measure for `N#Cc1c(-c2ccnc(N)c2)sc(C(N)=O)c1-c1ccc(Cl)cc1Cl` [Compound 60]: 0.1 to 1 µM; for `N#Cc1c(-c2ccnc(N)c2)sc(-c2cnc[nH]2)c1-c1ccc(Cl)cc1Cl` [Compound 80, 2-(2-aminopyridin-4-yl)-4-(2,4-dichlorophenyl)-5-(1H-imidazol-5-yl)thiophene-3-carbonitrile]: under 0.1 µM; for `CNc1cc(-c2cc(-c3ccc(Cl)cc3Cl)c(-c3ncc[nH]3)s2)ncn1` [Compound 84]: over 1 µM.
